# Assay results published in patent publication US6252079A, “Intermediates in the synthesis of camptothecin and related compounds and synthesis thereof” (University of Pittsburgh, priority 1997, dated 2001).
# Where two headings read alike, the source gives them in different places.
# Columns and labels:
# Topoisomerase I [1] = molecular target: T1, Topoisomerase I (Homo sapiens, UniProt P11387); assay: Induction of Topoisomerase I-mediated DNA cleavage; assay type: biochemical; settings: 22d compared with CPT
# T1 construct: supercoiled DNA relaxation and DNA cleavage assays
# T1 sequence (P11387 2-765): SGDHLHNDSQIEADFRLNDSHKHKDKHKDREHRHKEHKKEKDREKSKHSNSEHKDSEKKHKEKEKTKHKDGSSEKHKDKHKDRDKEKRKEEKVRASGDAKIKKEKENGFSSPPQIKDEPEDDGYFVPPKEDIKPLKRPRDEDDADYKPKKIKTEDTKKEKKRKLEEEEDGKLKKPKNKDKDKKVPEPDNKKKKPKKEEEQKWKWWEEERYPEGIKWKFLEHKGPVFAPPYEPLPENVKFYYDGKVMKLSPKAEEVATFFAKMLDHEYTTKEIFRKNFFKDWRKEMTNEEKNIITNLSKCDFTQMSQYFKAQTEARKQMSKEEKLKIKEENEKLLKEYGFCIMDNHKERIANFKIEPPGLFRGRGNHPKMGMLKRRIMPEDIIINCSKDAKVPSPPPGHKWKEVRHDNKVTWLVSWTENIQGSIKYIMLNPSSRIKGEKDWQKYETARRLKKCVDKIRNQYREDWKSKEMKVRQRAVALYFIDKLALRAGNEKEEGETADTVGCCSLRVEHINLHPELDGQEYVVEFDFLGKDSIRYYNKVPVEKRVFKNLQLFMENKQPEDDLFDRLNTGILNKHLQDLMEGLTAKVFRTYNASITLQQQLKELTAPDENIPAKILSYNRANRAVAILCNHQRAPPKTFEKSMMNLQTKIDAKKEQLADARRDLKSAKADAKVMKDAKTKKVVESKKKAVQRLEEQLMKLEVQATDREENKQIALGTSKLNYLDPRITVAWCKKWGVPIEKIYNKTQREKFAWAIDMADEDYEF
# [2] = test system: 833 K human teratocarcinoma cells; assay: Cytotoxicity, 833 K cells; assay type: cell-based; settings: read-out: IC50 (833 K human teratocarcinoma cells)
# Experimental: Cytotoxicity and Topoisomerase I-mediated effect studies of compounds 22d and (20S)-camptothecin were performed at the Laboratory for Bioorganic Chemistry, Memorial Sloan-Kettering Institute Cancer Center, New York with the following results: […]
# Topoisomerase I [3] = molecular target: T1, Topoisomerase I; assay: Inhibition of Topoisomerase I-mediated relaxation of supercoiled DNA; assay type: biochemical; settings: 22d compared with CPT
# [4] = test system: HL-60 human promyelocytic leukemic cells; assay: Cytotoxicity, HL-60 cells; assay type: cell-based
# Experimental: Cytotoxicity and Topoisomerase I-mediated effect studies of compounds 22d and (20S)-camptothecin were performed at the Laboratory for Bioorganic Chemistry, Memorial Sloan-Kettering Institute Cancer Center, New York with the following results:
# 1. IC50 (HL-60 human promyelocytic leukemic cells, μmol): 0.004 (22d); 0.004 (CPT).
# colon cancer xenografts = settings: dose levels that were well tolerated; cited from earlier work
# [5] = test system: thirteen human xenograft lines, including colon, lung, breast, stomach, ovary, and malignant melanoma; settings: 20% interlipid formulation, intramuscularly and orally, non-toxic doses; cited from earlier work
Compound,potency in the induction of Topoisomerase I-mediated DNA cleavage (Topoisomerase I [1]),"IC50 ([2]; 833 K cells, cytotoxicity) [nM]",potency in the inhibition of Topoisomerase I-mediated relaxation of supercoiled DNA (Topoisomerase I [3]),"IC50 ([4]; HL-60 cells, cytotoxicity, read-out: IC50 (HL-60 human promyelocytic leukemic cells)) [nM]",efficacy in mice carrying colon cancer xenografts (colon cancer xenografts),effect on growth of human xenograft lines [5],IC50 ([2]; 833K) [nM],"IC50 ([4]; HL-60, read-out: IC50 (HL-60 human promyelocytic leukemic cells)) [nM]"
"CC[C@@]1(O)C(=O)OCc2c1cc1n(c2=O)Cc2c-1nc1ccccc1c2[Si](C)(C)C [Compound 22d, (20S)-7-Trimethylsilylcamptothecin]",Same potency,4.4,Same potency,4,,,,
"CCC1(O)C(=O)OCc2c1cc1n(c2=O)Cc2cc3c(N)cccc3nc2-1 (racemic) [Racemic 9-aminocamptothecin, 9-aminocamptothecin]",,,,,very effective,,,
"CC[C@@]1(O)C(=O)OCc2c1cc1n(c2=O)Cc2cc3ccccc3nc2-1 [CPT, (20S)-camptothecin]",Same potency,,Same potency,,,suppressed growth and induced regression of cancer in thirteen human xenograft lines,5.5,4
